# Measurements taken from patent US8993574B2, “Pyrrole antifungal agents” (F2G Ltd, priority 2008, dated 2015).
# Experiments:
# Assay type in all cases: cell-based
# [1] = test system: Aspergillus fumigatus AF210; experiment: MIC, RPMI medium; conditions: for MIC: Aspergillus fumigatus, AF210, MIC banded into grades, read-out: MIC grade, A. fumigatus 210
# Procedure: (§1) Between 1 and 5 mgs of compound were accurately weighed out into a sterile Eppendorf tube. The compound was dissolved in DMSO to give a solution containing 5 mg/mL. Tubes were stored at −20° C. until required.
# (§2) On the day of testing thawed solutions were vortex mixed to ensure homogeneity. 30 μL of solution was removed and added to 570 μL of sterile water in a separate sterile Eppendorf. The thoroughly mixed solution was used to prepare a series of doubling dilutions in water, in a deep well plate. Thirteen replicate plates were prepared using a Minitrak by aspirating 20 μL from each well into eleven clear polystyrene 96 well plates.
# (§3) Assays were also performed in RPMI medium for both Aspergillus spp. (strains described above) and Candida spp. (Candida albicans, Candida glabrata, Candida krusei, Candida parapsilosis and Candida tropicalis). To perform MIC tests in this medium, dilutions of compounds are prepared in microtitre plates as described above. Fungal strains to be tested are grown and harvested in an identical manner to that described above, and each organism suspension was diluted in RPMI medium, containing 2% glucose and 0.135 M MOPS buffer (pH 7.0) to 0.5-2×10^4 cfu/mL, rather than in YAG medium. 80 μL of an organism suspension was added to each well of the plate containing drug dilutions.
# (§4) This produced MIC plates with a drug range 50-0.05 mg/L and organism inocula of 1−2×10^4 cfu/mL. All plates were incubated for 24-48 h at 35° C. Growth was assessed by monitoring the optical density at 485 nm for each well. The MIC of a compound is the lowest drug concentration that inhibits growth of an organism by >80% compared with a drug free control.
# (§5) The following organisms were tested: Aspergillus flavus, Aspergillus fumigatus AF293 and AF210, Aspergillus niger, Aspergillus terreus AT4 and AT49, Candida albicans, Candida glabrata, Candida krusei, Candida parapsilosis and Candida tropicalis.
# Aspergillus niger [2] = experiment: MIC, RPMI medium; conditions: MIC banded into grades; for MIC: Aspergillus niger, read-out: MIC grade, A. niger
# Procedure: as §1, §2, §3, §4, §5
# [3] = test system: Aspergillus fumigatus AF293; experiment: MIC, RPMI medium; conditions: for MIC: Aspergillus fumigatus, AF293, MIC banded into grades, read-out: MIC grade, A. fumigatus
# Procedure: as §1, §2, §3, §4, §5
# Aspergillus terreus AT49 [4] = experiment: MIC, RPMI medium; conditions: for MIC: Aspergillus terreus, AT49, MIC banded into grades, read-out: MIC grade, A. terreus 49
# Procedure: as §1, §2, §3, §4, §5
# Aspergillus flavus [5] = experiment: MIC, RPMI medium; conditions: MIC banded into grades; for MIC: Aspergillus flavus, read-out: MIC grade, A. flavus
# Procedure: as §1, §2, §3, §4, §5
# Aspergillus terreus AT4 [6] = experiment: MIC, RPMI medium; conditions: for MIC: Aspergillus terreus, AT4, MIC banded into grades, read-out: MIC grade, A. terreus
# Procedure: as §1, §2, §3, §4, §5
# [7] = test system: Aspergillus fumigatus AF210; experiment: MIC, YAG medium; conditions: 24 h at 35° C, MIC banded into grades; for MIC: Aspergillus fumigatus, read-out: MIC grade, A. fumigatus 210
# Procedure: as §1, §2
# (§6) Spores of Aspergillus spp. (Aspergillus fumigatus [two strains], Aspergillus terreus [two strains], Aspergillus niger and Aspergillus flavus) were harvested from cultures grown on Sabarauds agar for 5 days, and resuspended in PBS/Tween 80 to approx 1×10^7 cfu/mL. Each organism suspension was diluted in YAG medium (1% glucose, 1% ammonium chloride and 0.5% yeast extract) to 0.5−2×10^4 cfu/mL. 80 μL of an organism suspension was added to each well of the plate containing drug dilutions.
# as §4, with “cfu/mL for Aspergillus spp.” for “cfu/mL.”, “24” for “24-48”, “>70%” for “>80%”, “control. MICs are recorded as mg/L. In cases where the MIC of an organism is […] mg/L the MIC is repeated using a concentration range of 0.5-0.0005 mg/L.” for “control.”
# as §5
# Aspergillus niger [8] = experiment: MIC, YAG medium; conditions: 24 h at 35° C, MIC banded into grades; for MIC: Aspergillus niger, read-out: MIC grade, A. niger
# Procedure: as §1, §2, §6
# as §4, with “cfu/mL for Aspergillus spp.” for “cfu/mL.”, “24” for “24-48”, “>70%” for “>80%”, “control. MICs are recorded as mg/L. In cases where the MIC of an organism is […] mg/L the MIC is repeated using a concentration range of 0.5-0.0005 mg/L.” for “control.”
# as §5
# [9] = test system: Aspergillus fumigatus AF293; experiment: MIC, YAG medium; conditions: 24 h at 35° C, MIC banded into grades; for MIC: Aspergillus fumigatus, read-out: MIC grade, A. fumigatus
# Procedure: as §1, §2, §6
# as §4, with “cfu/mL for Aspergillus spp.” for “cfu/mL.”, “24” for “24-48”, “>70%” for “>80%”, “control. MICs are recorded as mg/L. In cases where the MIC of an organism is […] mg/L the MIC is repeated using a concentration range of 0.5-0.0005 mg/L.” for “control.”
# as §5
# Aspergillus terreus AT49 [10] = experiment: MIC, YAG medium; conditions: 24 h at 35° C, MIC banded into grades; for MIC: Aspergillus terreus, read-out: MIC grade, A. terreus 49
# Procedure: as §1, §2, §6
# as §4, with “cfu/mL for Aspergillus spp.” for “cfu/mL.”, “24” for “24-48”, “>70%” for “>80%”, “control. MICs are recorded as mg/L. In cases where the MIC of an organism is […] mg/L the MIC is repeated using a concentration range of 0.5-0.0005 mg/L.” for “control.”
# as §5
# Aspergillus flavus [11] = experiment: MIC, YAG medium; conditions: 24 h at 35° C, MIC banded into grades; for MIC: Aspergillus flavus, 24 h, read-out: MIC grade, A. flavus
# Procedure: as §1, §2, §6
# as §4, with “cfu/mL for Aspergillus spp.” for “cfu/mL.”, “24” for “24-48”, “>70%” for “>80%”, “control. MICs are recorded as mg/L. In cases where the MIC of an organism is […] mg/L the MIC is repeated using a concentration range of 0.5-0.0005 mg/L.” for “control.”
# as §5
# Aspergillus terreus AT4 [12] = experiment: MIC, YAG medium; conditions: 24 h at 35° C, MIC banded into grades; for MIC: Aspergillus terreus, read-out: MIC grade, A. terreus
# Procedure: as §1, §2, §6
# as §4, with “cfu/mL for Aspergillus spp.” for “cfu/mL.”, “24” for “24-48”, “>70%” for “>80%”, “control. MICs are recorded as mg/L. In cases where the MIC of an organism is […] mg/L the MIC is repeated using a concentration range of 0.5-0.0005 mg/L.” for “control.”
# as §5
Compound,MIC [1] [µg/mL],MIC (Aspergillus niger [2]) [µg/mL],MIC [3] [µg/mL],MIC (Aspergillus terreus AT49 [4]) [µg/mL],MIC (Aspergillus flavus [5]) [µg/mL],MIC (Aspergillus terreus AT4 [6]) [µg/mL],MIC [7] [µg/mL],MIC (Aspergillus niger [8]) [µg/mL],MIC [9] [µg/mL],MIC (Aspergillus terreus AT49 [10]) [µg/mL],MIC (Aspergillus flavus [11]) [µg/mL],MIC (Aspergillus terreus AT4 [12]) [µg/mL],other results
"COCCCCn1c(C)cc(-c2ccccc2)c1C(=O)C(=O)Nc1ccc(N2CCN(c3cc(C)cc(C)n3)CC2)cc1 [Example 142, N-{4-[4-(4,6-Dimethyl-pyridin-2-yl)-piperazin-1-yl]-phenyl}-2-[1-(4-methoxy-butyl)-5-methy-3-phenyl-1H-pyrrol-2-yl]-2-oxo-acetamide]",,,,,,,,,,,,,"MIC grade, A. fumigatus 210 ([1]; MIC banded into grades): 3 (A grade of 3 represents an MIC of less than 1 mg/L); MIC grade, A. niger (Aspergillus niger [2]): 3 (A grade of 3 represents an MIC of less than 1 mg/L); MIC grade, A. fumigatus ([3]; MIC banded into grades): 3 (A grade of 3 represents an MIC of less than 1 mg/L); MIC grade, A. terreus 49 (Aspergillus terreus AT49 [4]; MIC banded into grades): 3 (A grade of 3 represents an MIC of less than 1 mg/L); MIC grade, A. flavus (Aspergillus flavus [5]): 3 (A grade of 3 represents an MIC of less than 1 mg/L); MIC grade, A. terreus (Aspergillus terreus AT4 [6]; MIC banded into grades): 3 (A grade of 3 represents an MIC of less than 1 mg/L); MIC grade, A. fumigatus 210 [7]: 3 (A grade of 3 represents an MIC of less than 1 mg/L); MIC grade, A. niger (Aspergillus niger [8]): 3 (A grade of 3 represents an MIC of less than 1 mg/L); MIC grade, A. fumigatus [9]: 3 (A grade of 3 represents an MIC of less than 1 mg/L); MIC grade, A. terreus 49 (Aspergillus terreus AT49 [10]): 3 (A grade of 3 represents an MIC of less than 1 mg/L); MIC grade, A. flavus (Aspergillus flavus [11]): 3 (A grade of 3 represents an MIC of less than 1 mg/L); MIC grade, A. terreus (Aspergillus terreus AT4 [12]): 3 (A grade of 3 represents an MIC of less than 1 mg/L)"
"COCCn1cc(-c2ccccc2Cl)cc1C(=O)C(=O)Nc1ccc(N2CCN(c3cc(C)cc(C)n3)CC2)cc1 [Example 58, 2-[4-(2-Chloro-phenyl)-1-(2-methoxy-ethyl)-1H-pyrrol-2-yl]-N-{4-[4-(4,6-dimethyl-pyridin-2-yl)-piperazin-1-yl]-phenyl}-2-oxo-acetamide]",> 10,> 10,> 10,> 10,> 10,> 10,1 to 10,> 10,1 to 10,1 to 10,1 to 10,1 to 10,
"Cc1cc(C)nc(N2CCN(c3ccc(NC(=O)C(=O)c4c(-c5ccccc5)cc(C)n4C)cc3COCCCN3CCN(C)CC3)CC2)c1 [Example 19, 2-(1,5-Dimethyl-3-phenyl-1H-pyrrol-2-yl)-N-{4-[4-(4,6-dimethyl-pyridin-2-yl)-piperazin-1-yl]-3-[3-(4-methyl-piperazin-1-yl)-propoxymethyl]-phenyl}-2-oxo-acetamide]",> 10,> 10,> 10,> 10,> 10,> 10,> 10,> 10,> 10,1 to 10,1 to 10,> 10,

# Second part, led by results:
MIC [1] [µg/mL],MIC (Aspergillus niger [2]) [µg/mL],MIC [3] [µg/mL],MIC (Aspergillus terreus AT49 [4]) [µg/mL],MIC (Aspergillus flavus [5]) [µg/mL],MIC (Aspergillus terreus AT4 [6]) [µg/mL],MIC [7] [µg/mL],MIC (Aspergillus niger [8]) [µg/mL],MIC [9] [µg/mL],MIC (Aspergillus terreus AT49 [10]) [µg/mL],MIC (Aspergillus flavus [11]) [µg/mL],MIC (Aspergillus terreus AT4 [12]) [µg/mL],Compound,other results
> 10,> 10,> 10,> 10,> 10,> 10,> 10,> 10,> 10,1 to 10,> 10,> 10,"Cc1cc(-c2ccccc2)c(C(=O)C(=O)Nc2ccncc2)n1C [Example 33, 2-(1,5-Dimethyl-3-phenyl-1H-pyrrol-2-yl)-2-oxo-N-pyridin-4-yl-acetamide]",
< 1,< 1,< 1,< 1,< 1,< 1,< 1,< 1,< 1,< 1,< 1,< 1,"Cc1cc(C)nc(N2CCN(c3ccc(NC(=O)C(=O)c4c(-c5ccccc5)cc5n4CCC5)cc3)CC2)c1 [Example 6, N-{4-[4-(4,6-Dimethyl-pyridin-2-yl)-piperazin-1-yl]-phenyl}-2-oxo-2-(2-phenyl-6,7-dihydro-5H-pyrrolizin-3-yl)-acetamide]",
